Laboratory results as given in patent US20240300941A1, “HPK1 INHIBITORS, PREPARATION METHOD AND APPLICATION THEREOF” (ZHUHAI YUFAN BIOTECHNOLOGIES CO., LTD., priority 2018, published 2024).
pIC50: −log10 of the molar value.

What was measured:
HPK1 = HPK1 (Homo sapiens (Human), UniProt Q92918); assay: HPK1 ADP-Glo enzyme assay; type: biochemical; details: HPK1 protein 5 nM, MBP and ATP substrate, ADP-Glo readout
Method: The buffer used in the enzyme assay contains 5 mM MOPS (pH=7.2), 2.5 mM β-Glycerol Phosphate, 0.4 mM EDTA, 1 mM EGTA, 0.05 mM DTT, 5 mM MgCl2. The compound was dissolved in 100% DMSO at the concentration was 10 mM. The initial concentration of the test was 5 uM, and ten data points were diluted by three-fold gradient, and each point was repeatedly measured twice. The HPK1 protein was purchased from Thermo (Cat. No. PV6355) and diluted to 2× stock solution at the concentration of 10 nM (the final concentration of the enzyme assay was 5 nM). 2.5 µl of 2×HPK1 protein was added to each well of the plate containing the test compound, centrifuged at 1000 rpm for 30 seconds, and then incubated at 25° C. for 15 minutes. MBP protein was purchased from Millipore (Cat. No. 13-110) and ATP was purchased from Sigma (Cat. No. A7699-5G) and the two were formulated into 2× working solutions at concentrations of 4 uM and 80 uM. Added 2.5 μl mixture of 2×MBP and ATP, centrifuged at 1000 rpm for 30 seconds, then incubated at 25° C. for 90 minutes. Then added 5 ul of ADP-Glo™ (Promega, Cat. No. V9102) to the assay plate and incubated […] at 25° C. for 60 minutes. Finally, 10 ul of the kinase assay reagent (Promega, Cat. No. V9102) was added to the assay plate, centrifuged at 1000 rpm for 30 seconds at 25° C. for 60 minutes, and the […] intensity was determined.

[1] = test system: pSLP-76(Ser376) in Jurkat E6-1 cells; assay: Jurkat E6-1 pSLP-76(Ser376) HTRF experiment; type: cell-based; details: 4 hours compound incubation, anti-human CD3 antibody 20 minutes, Phospho-SLP-76 / SLP-76 HTRF
Method: Jurkat E6-1 cells were purchased from ATCC (Cat. No. TIB-152TM) and cultured overnight with RPMI 1640 containing 0.5% o FBS, after that 20 μL (10^7 cells/mL) cells were added to the experimental plates. Then the test compounds were diluted by three-fold gradient, and 10 different concentrations were prepared, and 5 μl of each was added to the experimental plate, and incubated for 4 hours in 37° C. incubator containing 5% CO2. Then 5 ul of 6× anti-human CD3 antibody (Biolegend, Cat. No. 300432) was added and incubated for 20 minutes in 37° C. incubator containing 5% CO2. Finally, the Phospho-SLP-76 and SLP-76 results were determined using the Cisbio Phospho-SLP-76 and SLP-76 HTRF assay kits (items: 63ADK076PEH and 63ADK077PEH, respectively). Based on the results, the IC50 of the compound is calculated.

Sequence of HPK1 (Q92918 whole entry): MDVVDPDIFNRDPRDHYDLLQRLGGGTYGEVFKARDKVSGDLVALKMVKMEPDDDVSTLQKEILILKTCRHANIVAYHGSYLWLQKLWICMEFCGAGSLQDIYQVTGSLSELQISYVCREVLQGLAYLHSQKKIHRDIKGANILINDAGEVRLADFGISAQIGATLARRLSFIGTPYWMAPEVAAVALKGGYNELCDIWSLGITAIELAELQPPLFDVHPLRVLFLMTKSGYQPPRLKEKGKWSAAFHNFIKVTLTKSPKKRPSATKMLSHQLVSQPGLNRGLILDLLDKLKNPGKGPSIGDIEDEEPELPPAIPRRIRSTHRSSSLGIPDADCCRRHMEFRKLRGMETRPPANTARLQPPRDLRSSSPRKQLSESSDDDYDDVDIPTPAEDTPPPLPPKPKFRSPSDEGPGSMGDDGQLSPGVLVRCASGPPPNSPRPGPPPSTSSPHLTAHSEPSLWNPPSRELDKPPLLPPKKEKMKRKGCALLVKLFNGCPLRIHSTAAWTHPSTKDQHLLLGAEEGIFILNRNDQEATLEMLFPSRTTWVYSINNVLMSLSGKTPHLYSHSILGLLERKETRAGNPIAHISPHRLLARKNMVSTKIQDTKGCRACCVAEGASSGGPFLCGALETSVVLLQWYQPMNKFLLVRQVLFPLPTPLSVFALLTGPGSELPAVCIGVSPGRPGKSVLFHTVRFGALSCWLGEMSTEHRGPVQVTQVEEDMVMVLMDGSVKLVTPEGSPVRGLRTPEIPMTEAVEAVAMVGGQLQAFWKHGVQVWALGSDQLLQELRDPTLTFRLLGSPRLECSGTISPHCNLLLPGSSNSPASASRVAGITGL

Row | pIC50 (HPK1) | pIC50 [1] | SMILES
1 | > 7.00 | > 6.00 | Cc1ccc(C#CC(C)(C)O)cc1COc1cc(-c2cnc(C3CCN(C)CC3)s2)cnc1N [A60]
2 | > 7.00 | > 6.00 | CC1CN(C)CCN1c1ncc(-c2cnc(N)c(OCc3cccc(C#CC(C)(C)O)c3)c2)s1 (stereo not shown) [A63]
3 | > 7.00 | > 6.00 | C=CC(C)(O)C#Cc1cccc(COc2cc(-c3cnc(C4CCN(C)CC4)s3)cnc2N)c1 (stereo not shown) [A64]

Continued, compound first:

Row | SMILES | pIC50 (HPK1) | pIC50 [1]
4 | COc1ccc(C#CC(C)(C)O)cc1COc1cc(-c2cnc(C3CCN(C)CC3)s2)cnc1N [A59] | > 7.00 | > 6.00
5 | Cc1cc(C#CC(C)(C)O)cc(COc2cc(-c3cnc(C4CCN(C)CC4)s3)cnc2N)c1 [A71] | > 7.00 | > 6.00
